Where only a bound is given, the exact number is not on record here.

The test has as its target T1, aldosterone receptor (Rattus norvegicus, UniProt P22199).
T1 construct: centrifuged at 105,000 g for 30 minutes, and then a supernatant was collected as a renal soluble fraction; from tissue; host or cells: rat kidney (adrenalectomized rat), 105,000 g supernatant (cytosol)
T1 sequence (P22199 1-981): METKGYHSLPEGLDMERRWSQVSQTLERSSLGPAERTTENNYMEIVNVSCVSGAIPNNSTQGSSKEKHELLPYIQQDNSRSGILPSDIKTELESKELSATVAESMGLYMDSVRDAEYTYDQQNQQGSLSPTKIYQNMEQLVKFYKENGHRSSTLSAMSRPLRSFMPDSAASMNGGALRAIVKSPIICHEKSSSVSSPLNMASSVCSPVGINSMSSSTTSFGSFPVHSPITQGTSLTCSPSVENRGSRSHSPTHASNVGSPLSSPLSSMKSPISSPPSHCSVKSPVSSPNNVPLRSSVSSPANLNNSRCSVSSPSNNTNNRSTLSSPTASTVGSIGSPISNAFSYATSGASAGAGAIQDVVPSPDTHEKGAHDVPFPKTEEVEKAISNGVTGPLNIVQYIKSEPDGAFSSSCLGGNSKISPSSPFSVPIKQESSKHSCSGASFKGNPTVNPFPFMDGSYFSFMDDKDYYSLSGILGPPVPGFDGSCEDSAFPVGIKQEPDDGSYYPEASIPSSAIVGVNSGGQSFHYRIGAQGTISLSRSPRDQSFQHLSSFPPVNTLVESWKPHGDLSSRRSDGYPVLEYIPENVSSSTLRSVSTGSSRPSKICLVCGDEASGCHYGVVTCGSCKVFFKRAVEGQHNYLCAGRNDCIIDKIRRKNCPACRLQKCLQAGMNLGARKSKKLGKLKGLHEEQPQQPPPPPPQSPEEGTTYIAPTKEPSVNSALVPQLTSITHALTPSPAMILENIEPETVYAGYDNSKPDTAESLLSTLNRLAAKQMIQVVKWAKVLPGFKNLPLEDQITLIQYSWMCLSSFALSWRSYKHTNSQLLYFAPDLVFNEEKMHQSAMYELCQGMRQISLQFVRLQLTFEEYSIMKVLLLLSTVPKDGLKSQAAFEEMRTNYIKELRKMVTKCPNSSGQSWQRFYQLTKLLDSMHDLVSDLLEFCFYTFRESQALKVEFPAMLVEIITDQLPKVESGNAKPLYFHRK
Description: Binding inhibition test for aldosterone receptor ([3H]aldosterone, rat renal soluble fraction). The following applies: [3H]aldosterone 2 nM, rat renal soluble fraction, in the presence of 2 μM RU-486, 4° C. about 18 hours; read-out: MR IC50. The procedure:
Binding Inhibition Test for Aldosterone Receptor
A rat was layed open in flank regions (on both sides) to remove both adrenal glands. After stitching up the incision, the rat was returnd to a breeding cage again. After removing the kidney from the rat reared for about 3 to 5 days, the kidney was homogenized in 0.1 M Tris-HCl, 0.25M sucrose, 0.1M Na2MoO4 and 2 mM DTT buffer solution (pH7.4). The resultant was centrifuged at 105,000 g for 30 minutes, and then a supernatant was collected as a renal soluble fraction.
The rat renal soluble fraction (0.5 to 1.5 mg), a labeled ligand [^3H] aldosterone (2 nM) and a test article were reacted in the presence of 2 μM RU-486 (glucocorticoid receptor antagonist) in 100 μL of total amounts at 4° C. for about 18 hours. Afterwards, to the reaction solution was added 50 μL of 5% dextran-coated activated charcoal, and the mixture was immingled, and then centrifuged at 3,000 g for 5 minutes. Then, a supernatant (100 μL) was collected and mixed with a liquid scintillator ACS-II (Amersham) (3.5 mL), and then analyzed its radioactivity by a liquid scintillation counter (manufactured by Packard, Tri Carb 2700TR). A non-specific binding was obtained by addition of 2 μM aldosterone to a reaction solution. […]
Binding inhibition rate (%)=100−{(B−N)/(B0−N)}×100
B: labeled ligand binding amounts in the presence of a test article and a labeled ligand
B0: labeled ligand binding amounts in the absence of a test article
N: labeled ligand binding amounts in the presence of excess aldosterone (2 μM)
Test example 1 was carried out for compounds obtained in the Examples.
Usually IC50 stands for the midpoint of a concentration-inhibition curve. `COc1cc(NC(=O)c2ccc(-c3ccccc3C(F)(F)F)c(C)c2)ccc1S(N)(=O)=O` [Example 7]: the IC50 is 0.35 µM. The figure for `COc1cc(NC(=O)c2ccc(-c3ccccc3C(F)(F)F)cc2)ccc1S(N)(=O)=O` [Example 10] is 0.5 µM; for `COc1cc(NC(=O)c2ccc(-c3ccccc3OC(F)(F)F)cc2)ccc1S(N)(=O)=O` [Example 12] it is 0.61 µM. For `COc1cc(NC(=O)c2ccc(-c3ccccc3C)cc2)ccc1S(N)(=O)=O` [Example 14], the half-maximal inhibitory concentration (IC50) came out at 4.7 µM.

As for `COc1cc(NC(=O)c2ccc(-c3ccc(F)cc3C(F)(F)F)cc2)ccc1S(N)(=O)=O` [Example 17], the IC50 was 1.7 µM.

For the molecule `COC(=O)c1ccccc1-c1ccc(C(=O)Nc2ccc(S(N)(=O)=O)c(OC)c2)cc1` [Example 19], the IC50 stood at 3.3 µM. The figure for `CCOC(=O)c1ccccc1-c1ccc(C(=O)Nc2ccc(S(N)(=O)=O)c(OC)c2)cc1` [Example 20] is 0.55 µM. The figure for `COc1cc(NC(=O)c2ccc(-c3ccccc3CN3CCOCC3)cc2)ccc1S(N)(=O)=O` [Example 22] is 1.6 µM. The figure for `COC(=O)c1cc(OC)ccc1-c1ccc(C(=O)Nc2ccc(S(N)(=O)=O)c(OC)c2)cc1` [Example 24] is 2.4 µM. On to `COc1cc(NC(=O)c2ccc(-c3ccc(O)cc3C(F)(F)F)cc2)ccc1S(N)(=O)=O` [Example 26], for which the IC50 was determined as 0.49 µM. Regarding `COCc1ccccc1-c1ccc(C(=O)Nc2ccc(S(N)(=O)=O)c(OC)c2)cc1` [Example 28], the half-inhibitory concentration (IC50) is 3 µM. The figure for `COc1cc(NC(=O)c2ccc(-c3ccccc3C(=O)OC(C)(C)C)cc2)ccc1S(N)(=O)=O` [Example 31] is 0.25 µM.

`COc1cc(NC(=O)c2ccc(-c3ccccc3C3CCCCC3)cc2)ccc1S(N)(=O)=O` [Example 35]: the IC50 was determined as 0.35 µM. The figure for `COc1cc(NC(=O)c2ccc(-c3ccccc3C(C)C)cc2)ccc1S(N)(=O)=O` [Example 36] is 1.4 µM; for `COc1cc(NC(=O)c2ccc(-c3ccccc3OC(C)C)cc2)ccc1S(N)(=O)=O` [Example 39] it is 1.2 µM; for `COc1cc(NC(=O)c2ccc(-c3ccccc3OC(F)(F)C(F)F)cc2)ccc1S(N)(=O)=O` [Example 40] it is 0.39 µM.

Take `COc1cc(NC(=O)c2ccc(-c3ccccc3-c3cccs3)cc2)ccc1S(N)(=O)=O` [Example 42]: the IC50 is below 1 µM. Regarding `COc1cc(NC(=O)c2ccc(-c3ccccc3-c3nc(C)no3)cc2)ccc1S(N)(=O)=O` [Example 46], the IC50 was 3 µM. The figure for `COc1cc(NC(=O)c2ccc(-c3ccccc3C(F)(F)F)cc2)ccc1S(=O)(=O)N(C)C` [Example 50] is 0.7 µM; for `CNS(=O)(=O)c1ccc(NC(=O)c2ccc(-c3ccccc3C(F)(F)F)cc2)cc1OC` [Example 51] it is 0.2 µM.

Regarding `CCc1ccccc1-c1ccc(C(=O)Nc2ccc(S(N)(=O)=O)c(OC)c2)cc1` [Example 56], the 50% inhibitory concentration (IC50) amounted to 0.52 µM. On to `COc1cc(NC(=O)c2ccc(-c3ccccc3SC)cc2)ccc1S(N)(=O)=O` [Example 57], for which the IC50 was 0.65 µM. The figure for `COc1cc(C(=O)Nc2ccc(S(N)(=O)=O)c(OC)c2)ccc1-c1ccccc1C(F)(F)F` [Example 59] is 0.26 µM; for `CCOc1cc(C(=O)Nc2ccc(S(N)(=O)=O)c(OC)c2)ccc1-c1ccccc1C(F)(F)F` [Example 60] it is 0.2 µM. The figure for `COc1cc(NC(=O)c2ccc(-c3ccccc3C(F)(F)F)c(OCc3ccccc3)c2)ccc1S(N)(=O)=O` [Example 62] is 1.9 µM; for `CC(=O)OCc1cc(C(=O)Nc2ccc(S(C)(=O)=O)cc2)ccc1-c1ccccc1C(F)(F)F` [Example 64] it is 0.4 µM. On to `CS(=O)(=O)c1ccc(NC(=O)c2ccc(-c3ccccc3C(F)(F)F)c(CO)c2)cc1` [Example 65], for which the 50% inhibitory concentration (IC50) is 0.25 µM. The figure for `COc1cc(NC(=O)c2ccc(-c3ccccc3C(F)(F)F)c(COC(C)=O)c2)ccc1S(N)(=O)=O` [Example 68] is 0.21 µM. The figure for `COc1cc(NC(=O)c2ccc(-c3ccccc3C(F)(F)F)c(CO)c2)ccc1S(N)(=O)=O` [Example 69] is 0.22 µM; for `COc1cc(NC(=O)c2ccc(-c3ccccc3C(F)(F)F)c(CN(C)C)c2)ccc1S(N)(=O)=O` [Example 72] it is 0.53 µM; for `COc1cc(NC(=O)c2ccc(-c3ccccc3C(F)(F)F)c(CN3CCCC3)c2)ccc1S(N)(=O)=O` [Example 75] it is 0.88 µM. For the molecule `COc1cc(NC(=O)c2ccc(-c3ccccc3C(F)(F)F)c(CN3CCOCC3)c2)ccc1S(N)(=O)=O` [Example 79], the IC50 was found to be 0.32 µM. The figure for `COc1cc(NC(=O)c2ccc(-c3ccccc3C(F)(F)F)c(CCl)c2)ccc1S(N)(=O)=O` [Example 81] is 0.12 µM; for `COc1cc(NC(=O)c2ccc(-c3ccccc3C(F)(F)F)c(CNC(C)C)c2)ccc1S(N)(=O)=O` [Example 85] it is 0.54 µM. As for `COc1cc(NC(=O)c2ccc(-c3ccccc3C(F)(F)F)c(CNC[C@H]3CCCO3)c2)ccc1S(N)(=O)=O` [Example 91], the IC50 amounted to 0.26 µM. The figure for `COc1cc(NC(=O)c2ccc(-c3ccccc3C(F)(F)F)c(CNCC3CC3)c2)ccc1S(N)(=O)=O` [Example 92] is 0.41 µM. The figure for `COc1cc(NC(=O)c2ccc(-c3ccccc3C(F)(F)F)c(CN3CCC3)c2)ccc1S(N)(=O)=O` [Example 94] is 0.82 µM. The figure for `COc1cc(NC(=O)c2ccc(-c3ccccc3C(F)(F)F)c(COCC3CCCN(C)C3)c2)ccc1S(N)(=O)=O` (centres unmarked) [Example 99] is 2 µM. `COc1cc(NC(=O)c2ccc(-c3ccccc3C(F)(F)F)c(COCCCO)c2)ccc1S(N)(=O)=O` [Example 103]: the half-maximal inhibitory concentration (IC50) came to 0.13 µM.

On to `COc1cc(NC(=O)c2ccc(-c3ccccc3C(F)(F)F)c(COCC(OC)OC)c2)ccc1S(N)(=O)=O` [Example 104], for which the IC50 was determined as 0.082 µM. The figure for `COc1cc(NC(=O)c2ccc(-c3ccccc3C(F)(F)F)c(OCCOCc3ccccc3)c2)ccc1S(N)(=O)=O` [Example 109] is 0.19 µM. The figure for `COc1cc(NC(=O)c2ccc(-c3ccccc3C(F)(F)F)c(OCCO)c2)ccc1S(N)(=O)=O` [Example 121] is 0.52 µM; for `COc1cc(NC(=O)c2ccc(-c3ccccc3OC(F)(F)F)c(CO)c2)ccc1S(N)(=O)=O` [Example 122] it is 0.06 µM.

Regarding `CCc1ccccc1-c1ccc(C(=O)Nc2ccc(S(N)(=O)=O)c(OC)c2)cc1CO` [Example 126], the 50% inhibitory concentration (IC50) was determined as 0.31 µM. The figure for `COc1cc(NC(=O)c2ccc(-c3ccc(F)cc3C(F)(F)F)c(CO)c2)ccc1S(N)(=O)=O` [Example 127] is 0.22 µM; for `COc1ccc(-c2ccc(C(=O)Nc3ccc(S(N)(=O)=O)c(OC)c3)cc2CO)c(C(F)(F)F)c1` [Example 128] it is 0.14 µM; for `CCNc1cc(C(=O)Nc2ccc(S(N)(=O)=O)c(OC)c2)ccc1-c1ccccc1C(F)(F)F` [Example 131] it is 0.17 µM. Consider `CCN(CC)c1cc(C(=O)Nc2ccc(S(N)(=O)=O)c(OC)c2)ccc1-c1ccccc1C(F)(F)F` [Example 132], for which the half-inhibitory concentration (IC50) amounted to 0.29 µM.

On to `CS(=O)(=O)c1ccc(NC(=O)c2ccc(-c3ccccc3OC(F)(F)F)c(CN3CCSCC3)c2)cc1` [Example 136], for which the IC50 is 0.4 µM. `CS(=O)(=O)c1ccc(NC(=O)c2ccc(-c3ccccc3OC(F)(F)F)c(CN3CCC(F)(F)C3)c2)cc1` [Example 142]: the half-maximal inhibitory concentration (IC50) amounted to 0.42 µM.

The record behind these values is patent US20130116227A1, “BIARYL AMIDE DERIVATIVE OR PHARMACEUTICALLY ACCEPTABLE SALT THEREOF” (DAINIPPON SUMITOMO PHARMA CO., LTD., priority 2010, published 2013).
